According to ChEMBL document CHEMBL5380844, “Discovery of a Novel, Potent, Orally Active, and Safe Inhibitor Targeting Human Mitochondrial RNA Polymerase” (J Med Chem, 2023):
Active and inactive are the calls of the source. The calls are words filed in the database; no cut-off is given here.

Tests used:
A2780 [1] = experiment: Inhibition of colony formation in human A2780 cells assessed as decrease in colony quantity at 10 nM incubated for 14 days by crystal violet staining based analysis; format: functional, cell-based; settings: time 14.0 day
[2] = Efflux ratio of apparent permeability across basolateral to apical side over apical to basolateral side in human Caco2 cells at 3 uM incubated for 2 hrs by LC-MS/MS analysis; format: ADME, cell-based; settings: Caco-2
Cytochrome P450 2C19 = Cytochrome P450 2C19 (Homo sapiens, UniProt P33261); experiment: Inhibition of CYP2C19 (unknown origin) using S-mephenytoin as substrate in presence of NADPH by LC/MS/MS analysis; format: ADME
A2780 [3] = experiment: Antitumor activity against human A2780 cells xenografted in BALB/c nude mouse model assessed as reduction in beta-actin level at 100 mg/kg, po by immunoblotting analysis; format: functional, organism-based
A2780 [4] = experiment: Induction of cell cycle arrest in human A2780 cells assessed as accumulation of cells at S phase at 200 nM measured after 96 hrs by PI staining based flow cytometry analysis (reference value: 14.7%); format: functional
Cytochrome P450 2D6 = Cytochrome P450 2D6 (Homo sapiens, UniProt P10635); experiment: Inhibition of CYP2D6 (unknown origin) using bufuralol as substrate in presence of NADPH by LC/MS/MS analysis; format: ADME
A2780 [5] = experiment: Inhibition of colony formation in human A2780 cells assessed as reduction in number of colonies at upto 500 nM incubated for 14 days by crystal violet staining based analysis; format: functional, cell-based; settings: time 14.0 day
A2780 [6] = experiment: Antiproliferative activity against human A2780 cells incubated for 168 hrs by SRB method; format: functional, cell-based; settings: A2780, 168 h
A2780 [7] = experiment: Induction of apoptosis in human A2780 cells assessed as late apoptotic cells at 200 nM incubated for 96 hrs by Annexin-V/FITC and PI staining based flow cytometry analysis (reference value: 3.79%); format: functional
A2780 [8] = experiment: Antitumor activity against human A2780 cells xenografted in BALB/c nude mouse model assessed as reduction in COX1 level at 100 mg/kg, po by immunoblotting analysis; format: functional, organism-based
A2780 [9] = experiment: Antitumor activity against human A2780 cells xenografted in BALB/c nude mouse model assessed as decrease in tumor volume administered po daily and measured after 27 days; format: functional, organism-based; settings: dose 50-100 mg/kg, time 27.0 day
A2780 [10] = experiment: Induction of apoptosis in human A2780 cells assessed as viable cells at 50 nM incubated for 96 hrs by Annexin-V/FITC and PI staining based flow cytometry analysis (reference value: 89.2%); format: functional; settings: read-out: Activity
NCI-H1975 = experiment: Antiproliferative activity against human NCI-H1975 cells incubated for 168 hrs by SRB method; format: functional, cell-based; settings: NCI-H1975, 168 h
A2780 [11] = experiment: Antitumor activity against human A2780 cells xenografted in BALB/c nude mouse model assessed as reduction in […] level at 100 mg/kg, po by immunoblotting analysis; format: functional, organism-based
A2780 [12] = experiment: Antitumor activity against human A2780 cells xenografted in BALB/c nude mouse model assessed as effect on liver 100 mg/kg, po measured after 27 days; format: functional, organism-based; settings: time 27.0 day
Cytochrome P450 1A2 = molecular target: T1, Cytochrome P450 1A2 (Homo sapiens, UniProt P05177); experiment: Inhibition of CYP1A2 (unknown origin) using phenacetin as substrate in presence of NADPH by LC/MS/MS analysis; format: ADME
T1 sequence (P05177 whole entry): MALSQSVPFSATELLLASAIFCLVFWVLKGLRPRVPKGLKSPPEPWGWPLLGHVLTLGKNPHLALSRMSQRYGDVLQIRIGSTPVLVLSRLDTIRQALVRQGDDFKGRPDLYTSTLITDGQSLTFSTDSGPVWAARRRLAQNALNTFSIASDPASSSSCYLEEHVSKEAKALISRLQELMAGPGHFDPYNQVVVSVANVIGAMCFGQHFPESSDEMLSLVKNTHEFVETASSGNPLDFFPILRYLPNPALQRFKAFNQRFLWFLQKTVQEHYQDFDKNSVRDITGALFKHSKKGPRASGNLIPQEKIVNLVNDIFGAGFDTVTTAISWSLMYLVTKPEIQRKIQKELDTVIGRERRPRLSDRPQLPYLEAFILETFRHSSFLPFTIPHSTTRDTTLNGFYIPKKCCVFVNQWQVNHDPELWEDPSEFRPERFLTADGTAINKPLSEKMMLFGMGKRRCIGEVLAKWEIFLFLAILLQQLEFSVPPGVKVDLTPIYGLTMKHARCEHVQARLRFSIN

[13] = Toxicity in Balb/c mouse assessed as effect on lung at 100 mg/kg by H and E staining based analysis; format: organism-based; settings: in vivo
[14] = MRT in ICR mouse at 10 mg/kg, po measured upto 24 hrs by LC-MS/MS analysis; format: ADME, organism-based; settings: in vivo
A2780 [15] = experiment: Induction of cell cycle arrest in human A2780 cells assessed as accumulation of cells at G1 phase at 100 nM measured after 96 hrs by PI staining based flow cytometry analysis (reference value: 80.81%); format: functional
A2780 [16] = experiment: Effect on SDHB level in human A2780 cells at upto 500 nM by Western blot analysis; format: functional, cell-based
A2780 [17] = experiment: Induction of cell cycle arrest in human A2780 cells assessed as accumulation of cells at G2 phase at 200 nM measured after 96 hrs by PI staining based flow cytometry analysis (reference value: 4.49%); format: functional
IMR-90 = experiment: Antiproliferative activity against human IMR-90 cells incubated for 168 hrs by SRB method; format: functional, cell-based; settings: IMR-90, 168 h
[18] = Toxicity in Balb/c mouse assessed as effect on liver at 100 mg/kg by H and E staining based analysis; format: organism-based; settings: in vivo
A2780 [19] = experiment: Induction of cell cycle arrest in human A2780 cells assessed as accumulation of cells at S phase at 100 nM measured after 96 hrs by PI staining based flow cytometry analysis (reference value: 14.7%); format: functional
A2780 [20] = experiment: Inhibition of MT-CO2 expression in human A2780 cells at 100 nM incubated for 12 hrs by RNA sequencing analysis; format: functional, cell-based
Cytochrome P450 3A4 = Cytochrome P450 3A4 (Homo sapiens, UniProt P08684); experiment: Inhibition of […] (unknown origin) using testosterone as substrate in presence of NADPH by LC/MS/MS analysis; format: ADME
A2780 [21] = experiment: Inhibition of MT-CYB expression in human A2780 cells at 100 nM incubated for 12 hrs by RNA sequencing analysis; format: functional, cell-based
A2780 [22] = experiment: Inhibition of mitochondrial transcript in human A2780 cells assessed as decrease in CYTB expression by RT-qPCR analysis; format: functional, cell-based
[23] = Clearance in ICR mouse at 1 mg/kg, iv measured upto 24 hrs by LC-MS/MS analysis; format: ADME, organism-based; settings: in vivo
[24] = Inhibition of ND1 transcript level in human A2780 cells at 500 nM measured after 12 hrs by RT-qPCR analysis relative to control; format: functional
A2780 [25] = experiment: Inhibition of colony formation in human A2780 cells at 500 nM incubated for 14 days by crystal violet staining based analysis; format: functional, cell-based; settings: time 14.0 day
A2780 [26] = experiment: Inhibition of MT-ATP6 expression in human A2780 cells at 100 nM incubated for 12 hrs by RNA sequencing analysis; format: functional, cell-based

Chain of Cytochrome P450 2D6 (P10635 whole entry): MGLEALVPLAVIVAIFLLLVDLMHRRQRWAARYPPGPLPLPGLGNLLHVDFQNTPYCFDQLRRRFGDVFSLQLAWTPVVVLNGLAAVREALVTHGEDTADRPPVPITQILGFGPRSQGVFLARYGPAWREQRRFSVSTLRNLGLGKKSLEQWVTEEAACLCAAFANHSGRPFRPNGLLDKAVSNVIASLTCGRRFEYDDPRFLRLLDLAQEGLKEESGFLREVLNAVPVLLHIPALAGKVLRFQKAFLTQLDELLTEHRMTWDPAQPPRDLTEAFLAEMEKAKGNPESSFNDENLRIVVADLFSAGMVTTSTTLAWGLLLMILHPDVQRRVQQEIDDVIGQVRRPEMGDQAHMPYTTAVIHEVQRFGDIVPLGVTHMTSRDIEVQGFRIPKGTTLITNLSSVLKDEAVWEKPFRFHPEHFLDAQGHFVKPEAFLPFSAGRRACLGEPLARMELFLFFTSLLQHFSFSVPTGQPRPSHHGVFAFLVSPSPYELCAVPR
Chain of Cytochrome P450 3A4 (P08684 whole entry): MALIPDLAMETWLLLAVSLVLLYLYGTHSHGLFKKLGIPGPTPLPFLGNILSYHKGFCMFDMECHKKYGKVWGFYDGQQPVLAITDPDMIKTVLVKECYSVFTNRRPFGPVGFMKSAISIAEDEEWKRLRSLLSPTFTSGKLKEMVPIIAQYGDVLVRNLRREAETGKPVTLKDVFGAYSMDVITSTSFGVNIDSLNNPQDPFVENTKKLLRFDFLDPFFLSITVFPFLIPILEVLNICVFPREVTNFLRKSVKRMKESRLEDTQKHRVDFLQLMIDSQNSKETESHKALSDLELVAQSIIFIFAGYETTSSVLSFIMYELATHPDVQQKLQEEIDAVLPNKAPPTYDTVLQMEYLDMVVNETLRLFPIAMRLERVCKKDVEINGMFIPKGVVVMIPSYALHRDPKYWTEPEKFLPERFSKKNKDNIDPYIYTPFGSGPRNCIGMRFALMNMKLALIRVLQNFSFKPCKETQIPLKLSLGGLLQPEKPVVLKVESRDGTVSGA
Chain of Cytochrome P450 2C19 (P33261 whole entry): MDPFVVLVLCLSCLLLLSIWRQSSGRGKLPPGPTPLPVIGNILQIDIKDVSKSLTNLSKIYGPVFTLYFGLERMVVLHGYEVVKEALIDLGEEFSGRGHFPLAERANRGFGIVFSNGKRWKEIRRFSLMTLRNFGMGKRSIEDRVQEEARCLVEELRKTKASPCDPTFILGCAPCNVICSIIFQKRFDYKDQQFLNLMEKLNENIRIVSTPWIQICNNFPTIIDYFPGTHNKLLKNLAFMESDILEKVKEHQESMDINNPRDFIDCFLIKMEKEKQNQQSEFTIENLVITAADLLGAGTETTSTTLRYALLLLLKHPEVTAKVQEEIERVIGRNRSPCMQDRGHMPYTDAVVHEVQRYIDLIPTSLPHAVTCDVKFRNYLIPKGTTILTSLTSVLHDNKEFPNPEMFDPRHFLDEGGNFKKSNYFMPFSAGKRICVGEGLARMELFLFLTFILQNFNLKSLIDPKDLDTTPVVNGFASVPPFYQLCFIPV

Question: Which results are given for `Cc1ccc(-c2cc(=O)oc3cc(O[C@H](C)C(=O)N4CC5CCC(C4)N5C)ccc23)c(C)c1`?
Answer: inhibition (A2780 [1]): Active; efflux ratio at 2 h, 3 µM [2]: 1.2; IC50 (Cytochrome P450 2C19): 31.5 µM; Activity (A2780 [3]): Active; Activity (A2780 [4]): 9.07%; IC50 (Cytochrome P450 2D6): > 40 µM; inhibition (A2780 [5]): Active; IC50 (A2780 [6]): 0.068 µM; Activity (A2780 [7]): 4.58%; Activity (A2780 [8]): Active; Activity (A2780 [9]): Dose-Dependent Effect; viability at 0.05 µM (A2780 [10]): 92.3%; IC50 (NCI-H1975): 0.108 µM; Activity (A2780 [11]): Active; Activity (A2780 [12]): inactive; IC50 (Cytochrome P450 1A2): > 40 µM; Activity [13]: Non-Toxic; MRT [14]: 3.3 h; Activity (A2780 [15]): 87.12%; Activity (A2780 [16]): inactive; Activity (A2780 [17]): 3.16%; IC50 (IMR-90): > 50 µM; Activity [18]: Non-Toxic; Activity (A2780 [19]): 9.15%; inhibition (A2780 [20]): Active; IC50 (Cytochrome P450 3A4): 30.8 µM; inhibition (A2780 [21]): Active; inhibition (A2780 [22]): Active; clearance [23]: 38.2 mL/min/kg; inhibition at 0.5 µM [24]: 15%; inhibition (A2780 [25]): inactive; inhibition (A2780 [26]): Active
